Assay results: patent US7371742B2, “Porphyrin derivatives for photodynamic therapy” (Institut Curie, priority 2001, dated 2008)
Like-named read-outs stand apart in the source and are kept apart here.

How the values were obtained:
L-1210 cells = experiment: Cytotoxicity L-1210 (no light), cytostatic activity; assay type: cell-based, human; conditions: no light; for Cytotoxicity L-1210 (no light), concentration giving 50%: 50% effect
Excerpt: Column L1210 corresponds to the cytostatic activity.

[1] = tested on: human colic adenocarcinoma cell line HT29; experiment: HT29 cell survival (MTT assay) after 24 h incubation, with or without light irradiation; conditions: for Photocytotoxicity HT 29, concentration giving 50%: 50% effect; for cytotoxic for HT29 (in words): remark of the inventors
[2] = tested on: RBY-79 (indifferently named Y-79) cells; experiment: RBY-79 (Y79) cell cytotoxicity / photocytotoxicity; conditions: for Photocytotoxicity RBY-79, concentration giving 50%: 50% effect
Excerpt: Columns HT29 and Y79 (═RBY79), without light, correspond to the cytotoxic activity.

FT-1 cells = experiment: FT-1 cell photocytotoxicity; assay type: cell-based, human; conditions: Red light; concentration not given
A549 = A549 photocytotoxicity (entries inside Table B cells); assay type: cell-based; conditions: A549 named inside the cell; concentration not given
tumoral cells = experiment: Antitumoral photodynamic activity in general (remarks on Tables B and C); assay type: cell-based, human; conditions: under appropriate irradiation
Excerpt: The main results for antitumoral effects are reported in Table B, showing the rate of photocytotoxicity. The higher the percentage, the higher the antitumnoral or antiviral effect.
Concerning the antitumoral activity, the compounds obtained by the inventors are active, under appropriate irradiation indicated towards tumoral cells in which these derivatives are able to accumulate.

[3] = patient, cited from earlier work; for period of photosensitivity: after treatment
[4] = read-out: HT 29 IC50 (μM) with 2J/cm^2, irradiation with filter (0% T at 520 nm, 80% T at 590 nm), 3.5 mW/cm^2, 10 min
[5] = read-out: HT 29 IC50 (μM) without light, without light (cytotoxic activity)
[6] = read-out: Y79 IC50 (μM) With 2J/cm^2, irradiation with filter (0% T at 520 nm, 80% T at 590 nm), 3.5 mW/cm^2, 10 min
[7] = read-out: Y79 IC50 (μM) without light, without light (cytotoxic activity)
[8] = without light, remark of the inventors
[9] = with light, compared with its cytotoxicity

Row | Compound | Cytotoxicity L-1210 (no light), % at 10 μg/ml (L-1210 cells) [% 10 μg/ml] | IC50 [1, 4] [µM] | IC50 [1, 5] [µM] | IC50 [2, 6] [µM] | IC50 [2, 7] [µM] | Photocytotoxicity HT 29, concentration giving 50% ([1]; with light) | Photocytotoxicity RBY-79, concentration giving 50% ([2]; with light) | cytotoxic for Y79 (in words) [2, 8] | further results
1 | OC[C@H]1O[C@H](SCc2ccc(-c3c4nc(c(-c5ccc(CS[C@H]6O[C@H](CO)[C@@H](O)[C@H](O)[C@@H]6O)cc5)c5ccc([nH]5)c(-c5ccc(CS[C@H]6O[C@H](CO)[C@@H](O)[C@H](O)[C@@H]6O)cc5)c5nc(c(-c6ccc(CS[C@H]7O[C@H](CO)[C@@H](O)[C@H](O)[C@@H]7O)cc6)c6ccc3[nH]6)C=C5)C=C4)cc2)[C@@H](O)[C@@H](O)[C@@H]1O [Compound 66, TPP(p-CH2-S-α-MannOH)4] | 0 | 10 | 21 | 15 | 28 | – | – | – | Photocytotoxicity HT 29, % at 10 μg/ml ([1]; 10 μg/ml): 40%; Photocytotoxicity RBY-79, % at 10 μg/ml ([2]; 10 μg/ml): 20%
2 | OC[C@H]1O[C@H](OCCOCCOc2ccc(-c3c4nc(c(-c5ccc(OCCOCCO[C@H]6O[C@H](CO)[C@@H](O)[C@H](O)[C@@H]6O)cc5)c5ccc([nH]5)c(-c5ccc(OCCOCCO[C@H]6O[C@H](CO)[C@@H](O)[C@H](O)[C@@H]6O)cc5)c5nc(c(-c6ccccc6)c6ccc3[nH]6)C=C5)C=C4)cc2)[C@@H](O)[C@@H](O)[C@@H]1O [Compound 67, TPP(p-O-DEG-O-α-Mann)3] | – | 0.7 ± 0.4 | > 10 | 0.3 ± 0.08 | > 10 | 1.5 µg/mL | 50% at 1.5 μg/ml, | – | Cytotoxicity L-1210 (no light), concentration giving 50% (L-1210 cells): 50% 8 μg/ml; Photocytotoxicity RBY-79, % at 1 μg/ml ([2]; 1 μg/ml): 0% at 1 μg/ml; Photocytotoxicity RBY-79, % at 2 μg/ml ([2]; 2 μg/ml): 80% at 2 μg/ml,
3 | OC[C@H]1O[C@H](SCCOCCOc2ccc(-c3c4nc(c(-c5ccc(OCCOCCS[C@H]6O[C@H](CO)[C@@H](O)[C@H](O)[C@@H]6O)cc5)c5ccc([nH]5)c(-c5ccc(OCCOCCS[C@H]6O[C@H](CO)[C@@H](O)[C@H](O)[C@@H]6O)cc5)c5nc(c(-c6ccccc6)c6ccc3[nH]6)C=C5)C=C4)cc2)[C@@H](O)[C@@H](O)[C@@H]1O [Compound 68, TPP(p-O-DEG-S-α-Mann)3] | 0 | 5.8 ± 3 | > 10 | 1 ± 0.5 | 6 ± 2 | 50% 4 μg/ml | 1 µg/mL | – | –
4 | TPC(m-O-β-GluOH)4 [Compound 54] | – | 4.4 ± 0.1 | > 15 | 3 ± 1.4 | 3.9 ± 0.1 | – | – | cytotoxic | Photocytotoxicity FT-1, Red (FT-1 cells): 20%; Photocytotoxicity A549 (A549): 0, A549, 0%
5 | TPP F4(p-S-β-GluOH)3 [Compound 26] | 20 | 1.7 | 6.5 | 2.2 | > 10 | 50% 2 μg/ml | 3.3 µg/mL | – | active when activated by light towards tumoral cells (in words) (tumoral cells): active; cytotoxic for HT29 (in words) ([1]; without light): cytotoxic
6 | TPP(p-OC3-S-α-MannOH)3 [Compound 24] | – | 3.2 | 3.2 | 4.7 | 7.5 | 4.6 µg/mL | 6.5 µg/mL | cytotoxic | active when activated by light towards tumoral cells (in words) (tumoral cells): active; Cytotoxicity L-1210 (no light), concentration giving 50% (L-1210 cells): 50% 14 μg/ml; phototoxic for HT29 (in words) [1, 9]: less phototoxic; cytotoxic for HT29 (in words) ([1]; without light): cytotoxic; phototoxic for Y79 (in words) [2, 9]: less phototoxic
7 | TPP(p-OC3-S-β-GluOH)3 [Compound 23] | 0 | 11 | 13 | 6.5 | > 10 | 6 µg/mL | 3 µg/mL | – | –
8 | benzoporphyrin derivative monoacid ring A [Verteporfin] | – | – | – | – | – | – | – | – | period of photosensitivity [3]: one day
9 | porfimer sodium [Photofrin ®, reference compound] | – | – | – | – | – | – | – | cytotoxic | IC50 ([1]; read-out: HT 29 IC50 with 2J/cm^2, estimated concentration, with 2J/cm^2, estimated for mean molecular weight 1178.55 dimer form): 5.1 µM; HT 29 IC50 with 2J/cm^2, in μg/ml ([1]; with 2J/cm^2): 6 µg/mL; HT 29 IC50 without light, in μg/ml ([1]; without light): Inactive for 10 μg/ml; time the drug stays in the skin after treatment ([3]; makes sensitive to strong light): approximately 30 days; period of photosensitivity [3]: several weeks; IC50 ([2]; read-out: Y79 IC50 With 2J/cm^2, estimated concentration, with 2J/cm^2, estimated for mean molecular weight 1178.55 dimer form): 2.6 µM; IC50 ([2]; read-out: Y79 IC50 without light, estimated concentration, without light, estimated for mean molecular weight 1178.55 dimer form): 3.9 µM; concentration at which cytotoxic for the Y79 cells ([2]; remark of the inventors): more than 3,9 μM; Y79 IC50 With 2J/cm^2, in μg/ml ([2]; with 2J/cm^2): 3 µg/mL; Y79 IC50 without light ([2]; without light): 4.6 µg/mL
